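96-well plates; 48 h exposure; 5 concentrations. Endpoints by linear interpolation between flanking doses. Not reached: highest tested concentration assigned. GI50: concentration for 50% inhibition of growth.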 The source made the active and inactive calls. Rule as the data show it: active = GI50 up to about 1.1 µM and inactive = higher.
Experiments:
Experiment in all cases: inhibition of tumour cell growth, NCI panel, 48 h
DLD-1 = system: DLD-1
ACHN = system: ACHN
HL-60 = system: HL-60
SW-620 = system: SW-620
HCT-116 = system: HCT-116
M14 = system: M14
TK-10 = system: TK-10
786-0 = system: 786-0
NCI-H460 = system: NCI-H460
SK-OV-3 = system: SK-OV-3
HOP-92 = system: HOP-92
COLO 205 = system: COLO 205
CAKI-1 = system: CAKI-1
SK-MEL-28 = system: SK-MEL-28
NCI-H522 = system: NCI-H522
HOP-62 = system: HOP-62
OVCAR-5 = system: OVCAR-5
SK-MEL-2 = system: SK-MEL-2
PC-3 = system: PC-3
MDA-MB-435 = system: MDA-MB-435

Compound | GI50 (DLD-1) | GI50 (ACHN) | GI50 (HL-60) | GI50 (SW-620) | GI50 (HCT-116) | GI50 (M14) | GI50 (TK-10) | GI50 (786-0) | GI50 (NCI-H460) | GI50 (SK-OV-3) | GI50 (HOP-92) | GI50 (COLO 205) | GI50 (CAKI-1) | GI50 (SK-MEL-28) | GI50 (NCI-H522) | GI50 (HOP-62) | GI50 (OVCAR-5) | GI50 (SK-MEL-2) | GI50 (PC-3) | GI50 (MDA-MB-435)
Oc1cccc(-c2cccc(O)n2)n1 | > 100 µM (inactive) | > 100 µM (inactive) | > 100 µM (inactive) | > 100 µM (inactive) | > 100 µM (inactive) | > 100 µM (inactive) | > 100 µM (inactive) | > 100 µM (inactive) | > 100 µM (inactive) | > 100 µM (inactive) | 26.3 µM (inactive) | > 100 µM (inactive) | > 100 µM (inactive) | > 100 µM (inactive) |  |  |  |  |  | 
Cn1nc(-c2cccc(-c3nn(C)/c(=N\CCO)s3)n2)s/c1=N/CCO | > 100 µM (inactive) | > 100 µM (inactive) | > 100 µM (inactive) | > 100 µM (inactive) | > 100 µM (inactive) | > 100 µM (inactive) |  | > 100 µM (inactive) | > 100 µM (inactive) |  | > 100 µM (inactive) | > 100 µM (inactive) |  | > 100 µM (inactive) | 36.5 µM (inactive) | > 100 µM (inactive) | > 100 µM (inactive) |  |  | 
CC(=O)OC1(Sc2ccccc2)CC2[C@H]3COC(C)(C)O[C@H]3CC[C@@]2(C)CC1=O (some centres not stated) | 65.2 µM (inactive) | 41.5 µM (inactive) |  | 52.4 µM (inactive) | 65.3 µM (inactive) | 34.6 µM (inactive) | > 100 µM (inactive) | 33.7 µM (inactive) | 64.1 µM (inactive) | 44.2 µM (inactive) | 45.2 µM (inactive) | 26.9 µM (inactive) | 48.8 µM (inactive) | > 100 µM (inactive) | 32.3 µM (inactive) |  | > 100 µM (inactive) | 81.8 µM (inactive) |  | 
COc1ccc(/N=c2\ssc3c(=S)ssc23)cc1 | 15.5 µM (inactive) | 23.8 µM (inactive) | 4.09 µM (inactive) | 15.3 µM (inactive) | 26 µM (inactive) | 20 µM (inactive) | 57.9 µM (inactive) | 34.1 µM (inactive) |  | > 100 µM (inactive) | 15.5 µM (inactive) |  | 91.4 µM (inactive) | 25.3 µM (inactive) | 13.9 µM (inactive) | > 100 µM (inactive) | 30.2 µM (inactive) | 60 µM (inactive) |  | 
NS(=O)(=O)c1ccc(-c2ccc([As](=O)(O)O)cc2)cc1 |  | > 100 µM (inactive) | > 100 µM (inactive) | > 100 µM (inactive) | > 100 µM (inactive) | > 100 µM (inactive) | > 100 µM (inactive) | > 100 µM (inactive) | > 100 µM (inactive) | > 100 µM (inactive) | > 100 µM (inactive) | > 100 µM (inactive) | > 100 µM (inactive) | > 100 µM (inactive) | > 100 µM (inactive) | 78.3 µM (inactive) | > 100 µM (inactive) | > 100 µM (inactive) | > 100 µM (inactive) | > 100 µM (inactive)
Cc1cc(C)c2c(c1)Nc1ccccc1P2c1ccccc1 (configuration not stated) | 23.5 µM (inactive) | > 10 µM (inactive) | 23.9 µM (inactive) | 39.8 µM (inactive) |  | 36.8 µM (inactive) | 40.2 µM (inactive) | 36.5 µM (inactive) | 22.3 µM (inactive) | > 100 µM (inactive) | 30.9 µM (inactive) | > 100 µM (inactive) | 11 µM (inactive) | 44.1 µM (inactive) |  | 25.8 µM (inactive) |  |  |  | 
COC(=O)n1c(CBr)c(Br)c2ccccc21 | 41.5 µM (inactive) | 18.6 µM (inactive) | 22.4 µM (inactive) | 47.2 µM (inactive) | 39.4 µM (inactive) | > 100 µM (inactive) | 33.1 µM (inactive) | 45 µM (inactive) | 24.3 µM (inactive) |  | 20.1 µM (inactive) | > 100 µM (inactive) | 23.8 µM (inactive) | > 100 µM (inactive) | 17.2 µM (inactive) | 21.2 µM (inactive) | 30.6 µM (inactive) | 23.3 µM (inactive) |  | 
NCCCCC(=O)c1cccnc1 | > 100 µM (inactive) |  | > 100 µM (inactive) | > 100 µM (inactive) | > 100 µM (inactive) | > 100 µM (inactive) | > 100 µM (inactive) | > 100 µM (inactive) | > 100 µM (inactive) | > 100 µM (inactive) | > 100 µM (inactive) |  | > 100 µM (inactive) | > 100 µM (inactive) | > 100 µM (inactive) | > 100 µM (inactive) | > 100 µM (inactive) | > 100 µM (inactive) |  | 
O=c1c(Cl)c(Cl)cnn1CCc1ccncc1 | 14.6 µM (inactive) | 19.2 µM (inactive) | 21.8 µM (inactive) | 19.1 µM (inactive) | 16.6 µM (inactive) | 16.7 µM (inactive) | 47.5 µM (inactive) | 19.6 µM (inactive) | 20.1 µM (inactive) |  | 20.4 µM (inactive) |  | 1.98 µM (inactive) | 16.4 µM (inactive) |  | 18.3 µM (inactive) | 19.5 µM (inactive) | 20.3 µM (inactive) |  | 
CC(C)(CN1CCCCC1)C(=O)/C=C/c1ccc(Cl)cc1 | 4.49 µM (inactive) | 5.12 µM (inactive) | 2.15 µM (inactive) | 2.57 µM (inactive) | 3.4 µM (inactive) | 2.51 µM (inactive) | 15.3 µM (inactive) | 2.72 µM (inactive) | 2.69 µM (inactive) | 11.2 µM (inactive) | 1.6 µM (inactive) | 4.82 µM (inactive) |  | 8.17 µM (inactive) | 2.73 µM (inactive) | > 10 µM (inactive) | 11.4 µM (inactive) |  |  | 
CCCCCCCCCCCCCCCCCC(=O)OCC(C[As](=O)(O)O)OC(=O)CCCCCCCCCCCCCCCCC (configuration not stated) | 40 µM (inactive) | 34.3 µM (inactive) | > 100 µM (inactive) | 16 µM (inactive) | 60.1 µM (inactive) | > 100 µM (inactive) | 33.4 µM (inactive) | 27.2 µM (inactive) | > 100 µM (inactive) | 18.2 µM (inactive) | 11.4 µM (inactive) |  | 65.5 µM (inactive) | > 100 µM (inactive) | 33.1 µM (inactive) | 24.4 µM (inactive) | > 100 µM (inactive) | 70.1 µM (inactive) |  | 
CSCCC(NC(=O)OC(C)(C)C)C(=O)NCCNc1ccc(NCCNC(=O)C(CCSC)NC(=O)OC(C)(C)C)c2c1C(=O)c1ccccc1C2=O (configuration not stated) |  | 7.13 µM (inactive) | 3.01 µM (inactive) | 2.23 µM (inactive) | 8.71 µM (inactive) | 3.85 µM (inactive) | 3.38 µM (inactive) | 5.82 µM (inactive) | 5.85 µM (inactive) | 8.89 µM (inactive) | 3.93 µM (inactive) | 2.22 µM (inactive) | 4.75 µM (inactive) | 1.85 µM (inactive) | 1.39 µM (inactive) | 3.15 µM (inactive) | 5.74 µM (inactive) | 14.2 µM (inactive) | 5.31 µM (inactive) | 2.63 µM (inactive)
CC(C)C1(O)C(c2ccccc2)=C(c2ccccc2)C(c2ccccc2)=C1c1ccccc1 | 5.87 µM (inactive) |  | 2.65 µM (inactive) | 6.12 µM (inactive) | 3.61 µM (inactive) | 6.95 µM (inactive) | 5.74 µM (inactive) | 5.78 µM (inactive) | 6.95 µM (inactive) | 15.2 µM (inactive) | 4.38 µM (inactive) | 10.1 µM (inactive) | 11.7 µM (inactive) |  | 4.35 µM (inactive) | 12.1 µM (inactive) | 17.5 µM (inactive) | 5.33 µM (inactive) |  | 
O=C(Nc1c(C(F)(F)F)cc(-c2ccccc2)[nH]c1=O)N1CCOCC1 |  | > 100 µM (inactive) | 26.9 µM (inactive) | > 100 µM (inactive) | > 100 µM (inactive) | > 100 µM (inactive) | > 100 µM (inactive) | > 100 µM (inactive) | > 100 µM (inactive) | > 100 µM (inactive) | 58.9 µM (inactive) | > 100 µM (inactive) | > 100 µM (inactive) | > 100 µM (inactive) | 89.1 µM (inactive) | > 100 µM (inactive) | > 100 µM (inactive) | > 100 µM (inactive) | > 100 µM (inactive) | > 100 µM (inactive)
CCOC(=O)CC[C@@H](NC(=O)c1ccc(N[C@@H]2c3cc4c(cc3C(c3cc(OC)c(O)c(OC)c3)C3C(=O)OC[C@@H]32)OCO4)cc1)C(=O)OCC (some centres not stated) | 0.123 µM (active) | 0.0115 µM (active) | 0.00292 µM (active) | 0.0396 µM (active) |  | 5.24 µM (inactive) | 0.11 µM (active) | 3.85 µM (inactive) | 0.001 µM (active) | 0.0144 µM (active) | 0.0205 µM (active) | 0.119 µM (active) | 0.013 µM (active) | 0.2 µM (active) | 0.0975 µM (active) | 0.0127 µM (active) | 0.0652 µM (active) | 0.0863 µM (active) |  | 
CC1O[C@@H]2CCCCC(=O)[C@]2(C)[C@H]1C (some centres not stated) | > 100 µM (inactive) | > 100 µM (inactive) | > 100 µM (inactive) | > 100 µM (inactive) | > 100 µM (inactive) | > 100 µM (inactive) | > 100 µM (inactive) | > 100 µM (inactive) | > 100 µM (inactive) | > 100 µM (inactive) | > 100 µM (inactive) | > 100 µM (inactive) | > 100 µM (inactive) | > 100 µM (inactive) |  | > 100 µM (inactive) | > 100 µM (inactive) | > 100 µM (inactive) |  | 
C[n+]1ccc(-c2cc[n+](C)cc2)cc1 [PARAQUAT DICHLORIDE] | > 30.3 µM (inactive) | > 26.4 µM (inactive) | 10 µM (inactive) | > 42 µM (inactive) |  | 13.9 µM (inactive) | > 53.6 µM (inactive) | > 100 µM (inactive) | 9.42 µM (inactive) | > 24.7 µM (inactive) | > 44.5 µM (inactive) | 14.8 µM (inactive) | > 100 µM (inactive) |  |  | 14.7 µM (inactive) | 19.7 µM (inactive) | 2.69 µM (inactive) |  | 

Source: ChEMBL document CHEMBL1201862, “PubChem BioAssay data set” (2004)
